This note sets out measurements from US20030139372A1, “Modulation of bone formation” (priority 2000, published 2003).

Experiment [1] has as its system whole bone marrow cells (BMC). Description: Fibroblastic colony forming unit (CFU-f) cultures of whole bone marrow cells. The class given is cell-based, rat. Conditions: for colony numbers: CFU-f colonies. As for the experimental part:
Whole bone marrow cells (BMC's) were obtained from the tibias and femurs of 125 g male Wistar rats. The bones were removed under aseptic conditions and all soft adherent tissue removed. An end of each bone was removed, a hole made in the opposing end with an 18 gauge syringe needle, and the cells isolated centrifugally [Dobson K. R., et al., Calcif tissue Int., 65:411-413 (1999)]. The cells were dispersed in 10 ml DMEM (containing 12% FCS, 1×10^−8 M dexamethasone and […] ascorbic acid) by repeated pipetting, and a single-cell suspension achieved by forcefully expelling the cells through a 20 gauge syringe needle. The cells were then used in the protocols described below. To analyse the numbers of fibroblastic-colony forming units (CFU-f) in either whole BMC or high density non-adherent stromal precursor (NASP) cell cultures, 10^6 nucleated BMC, or the non-adherent cells from the high density NASP cellcultures, were plated out on 55 cm^2 petri dishes in DMEM containing; 12% FCS, 1×10^−8 M dexamethasone and 50 μg/ml ascorbic acid. In the case of the CFU-f analysis of whole BMC, the test agents were added once at the beginning of the culture period. In the case of NASP cell cultures, the test agents were added at the beginning of the NASP cell cultures themselves and the CFU-f assay only used to assess the number of CFU-f generated during the NASP cell culture. The medium was changed after 5 days and, thereafter, twice weekly. The cultures were maintained for 18 days, after which the cells were washed with PBS and fixed, by the addition of cold ethanol. After fixation, the cultures were stained for alkaline phosphatase (APase) positive, calcium positive, collagen positive and total colonies as described by Scutt & Bertram (J. Bone and Mineral Res. 10:474-489, 1995). The cultures were then photographed using a digital camera and the APase positive, calcium positive, collagen positive and total colonies quantitated using Bioimage “Intelligent Quantifier” image analysis software [Dobson K., et al., A cost effective method for the automatic quantitative analysis of fibroblastic-colony forming units with osteoblastic potential. Calcif. Tissue Int. 65:166-172 (1999)].

Experiment [2] concerns bone forming cells. The experiment can be described thus: Bone anabolic activity from CFU-f and NASP cell assays combined with neonatal rat calvarial organ cultures. The class given is cell-based. Conditions: for bone anabolic activity: useful activity taken as equivalent to that of PGE2. The source says:
The main reason for the lack of understanding of the cellular basis for the actions of bone anabolic drugs is that there exists, at present, no single in vitro assay which responds to these drugs in an appropriate manner. However, we have now developed a number of assays which, when used in combination with neonatal rat calvarial organ cultures, are able to predict bone anabolic agents.
In the accompanying Figures, which are purely illustrative and not limiting on the present invention, the effect of certain compounds is shown on alkaline phosphatase activity, calcium uptake and collagen synthesis, respectively, with the final bar showing the cumulative and determinative effect of the compound on bone anabolism:
As noted above, there is no single assay that can reliably report on bone anabolic activity. Individual assays can identify certain putative bone anabolic agents but as there are many bone anabolic agents which act by a number of mechanisms, many remain unidentified. By using the CFU-f and the NASP cell assays in combination with neonatal rat calvarial organ cultures, bone anabolic agents can be reliably identified as the false negatives are reduced to a minimum.

Experiment [3] concerns non-adherent stromal precursor (NASP) cells. Description: High-density non-adherent stromal precursor (NASP) cell cultures. The class given is cell-based, rat. Conditions: 4 day NASP culture then CFU-f readout; FIG. 1. As for the experimental part: Whole bone marrow cells (BMC's) were obtained from the tibias and femurs of 125 g male Wistar rats. The bones were removed under aseptic conditions and all soft adherent tissue removed. An end of each bone was removed, a hole made in the opposing end with an 18 gauge syringe needle, and the cells isolated centrifugally [Dobson K. R., et al., Calcif tissue Int., 65:411-413 (1999)]. The cells were dispersed in 10 ml DMEM (containing 12% FCS, 1×10^−8 M dexamethasone and […] ascorbic acid) by repeated pipetting, and a single-cell suspension achieved by forcefully expelling the cells through a 20 gauge syringe needle. The cells were then used in the protocols described below. […]
After fixation, the cultures were stained for alkaline phosphatase (APase) positive, calcium positive, collagen positive and total colonies as described by Scutt & Bertram (J. Bone and Mineral Res. 10:474-489, 1995). The cultures were then photographed using a digital camera and the APase positive, calcium positive, collagen positive and total colonies quantitated using Bioimage “Intelligent Quantifier” image analysis software [Dobson K., et al., A cost effective method for the automatic quantitative analysis of fibroblastic-colony forming units with osteoblastic potential. […]

Experiment [4] has as its system neonatal rat calvariae. Description: Collagen synthesis in organ culture of neonatal rat calvariae. The class given is cell-based. The settings on record: [3H]proline incorporation into collagenase-digestible protein; FIG. 1. As for the experimental part: One day old rat pups were killed and the calvariae (skull cases) dissected out. The calvariae were then cut along the sagittal suture to give two hemicalvariae per foetus. Each bone was cultured in 2 ml DMEM containing 1 mg/ml BSA, 50 μg/ml ascorbic acid, 60 μg/ml penicillin, and 50 μg/ml streptomycin and 1×10^−8M dexamethasone in 35 mm tissue culture wells. After 24 h, the medium was replaced with fresh medium, any test agent added, and the tissue cultured for a further 48 h.
In this assay, each bone was pulsed with 10 μCi of [^3H]proline for 24 h at the end of the culture period. The bones were washed successively in trichloroacetic acid (TCA), acetone, and ether, and then dried. The incorporation of [^3H]proline into collagenase-digestible protein (CDP) was determined using purified bacterial collagenase by the method of Peterkofsky B. and Diegelmann R. (Biochemistry, 6: 988-994, 1971) and expressed as dpm.

Each structure is given as a SMILES string. “Also recorded” adds a separate entry of the source.

For the compound `CCCCCCCCCCCCCCCC(=O)OC` [Methyl palmitate, methyl palmitate], the colony numbers entry in experiment [1] is recorded as “produced stimulation”.

With `c1cc2c(cc1[C@H]1OC[C@H]3[C@@H]1CO[C@@H]3c1ccc3c(c1)OCO3)OCO2` [sesamin], the bone anabolic activity result in experiment [2] was “useful activity”.

On to `CC#CCC(C)[C@H](O)/C=C/[C@@H]1[C@H]2C/C(=C/CCCC(=O)O)C[C@H]2C[C@H]1O` (some centres unmarked) [iloprost], for which, in experiment [1], the colony numbers result is “stimulation comparable with that of PGA1”.

As for `CCCCC[C@H](O)/C=C/[C@H]1C=CC(=O)[C@@H]1CCCCCCC(=O)O` [PGA1], the “response in NASP cell assay” value in experiment [3] was “positive response”. For the same compound, the “response in calvarial collagen synthesis assay” value in experiment [4] was “positive response”. Further, the “bone anabolic activity compared with PGE2” value in experiment [2] (magnitude relative to PGE2) was “comparable with that produced by PGE2; also recorded: at least as good as that of PGE2”. The colony numbers entry in experiment [1] is recorded as “significant dose dependent increase”. For the same compound, the “response in CFU-f assay” value in experiment [1] (whole BMC, 18 day culture, FIG. 1) is given as “positive response”.

In the case of `CCCCC/C=C\C/C=C\CCCCCCCC(=O)O` [Linoleic acid, linoleic acid], the bone anabolic activity result in experiment [2] is recorded as “showed bone anabolic activity”.

Take `CCCCCCCC/C=C\CCCCCCCC(=O)O` [oleic acid]: the bone anabolic activity result in experiment [2] was “useful activity”.

Consider `CCCCC[C@H](O)/C=C/[C@H]1C=CC(=O)[C@@H]1C/C=C\CCCC(=O)O` [PGA2], for which the bone anabolic activity result in experiment [2] is “useful activity”.
